In ChEMBL document CHEMBL1201862, “PubChem BioAssay data set” (2004):
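Protocol summary: plate cells (96-well), add compound at 5 concentrations, incubate 48 h, interpolate endpoints linearly. GI50 marks 50% less growth.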 Active and inactive are the calls of the source. Rule as the data show it: active = GI50 up to about 1.1 µM and inactive = higher.

Legend:
Experiment in all cases: inhibition of tumour cell growth, NCI panel, 48 h
HCT-116 = system: HCT-116
SN12C = system: SN12C
NCI-H23 = system: NCI-H23
MDA-N = system: MDA-N
BT-549 = system: BT-549
SNB-19 = system: SNB-19
SNB-75 = system: SNB-75
NCI/ADR-RES = system: NCI/ADR-RES
A498 = system: A498
TK-10 = system: TK-10
IGROV-1 = system: IGROV-1
LOX IMVI = system: LOX IMVI
HOP-62 = system: HOP-62
A549 = system: A549
SK-MEL-28 = system: SK-MEL-28
OVCAR-8 = system: OVCAR-8
HT-29 = system: HT-29
U-251 = system: U-251
CCRF-CEM = system: CCRF-CEM
NCI-H522 = system: NCI-H522

Q: How did the GI50 (HCT-116) turn out when `CC1OC(OC2C(O[C@H]3CC[C@@]4(C)C(=CC[C@H]5[C@@H]6C[C@@H]7O[C@]8(CC[C@@H](C)CO8)[C@@H](C)[C@@H]7[C@@]6(C)CC[C@@H]54)C3)OC(CO)C(O)C2OC2OC(CO)C(O)C(O)C2O)C(O)C(O)C1O` (stereo not given in full) was run?
A: Its GI50 is 2.58 µM (inactive).

Q: What about the GI50 (SN12C) of the same molecule?
A: Its GI50 is 8.75 µM (inactive).

Q: What about the GI50 (NCI-H23) of the same molecule?
A: The GI50 was 1.89 µM (inactive).

Q: And the GI50 (MDA-N)?
A: The GI50 was 1.72 µM (inactive).

Q: And the GI50 (BT-549)?
A: Its GI50 is 2.07 µM (inactive).

Q: What about the GI50 (SNB-19) of the same molecule?
A: The GI50 was 1.87 µM (inactive).

Q: What about the GI50 (SNB-75) of the same molecule?
A: The GI50 was 2.04 µM (inactive).

Q: What about the GI50 (NCI/ADR-RES) of the same molecule?
A: The GI50 was 2.24 µM (inactive).

Q: And the GI50 (A498)?
A: Its GI50 is 1.44 µM (inactive).

Q: What about the GI50 (TK-10) of the same molecule?
A: Its GI50 is 1.93 µM (inactive).

Q: What about the GI50 (IGROV-1) of the same molecule?
A: Its GI50 is 1.76 µM (inactive).

Q: And the GI50 (LOX IMVI)?
A: Its GI50 is 2.38 µM (inactive).

Q: What about the GI50 (HOP-62) of the same molecule?
A: Its GI50 is 2.22 µM (inactive).

Q: What about the GI50 (A549) of the same molecule?
A: Its GI50 is 1.81 µM (inactive).

Q: What about the GI50 (SK-MEL-28) of the same molecule?
A: Its GI50 is 1.9 µM (inactive).

Q: What about the GI50 (OVCAR-8) of the same molecule?
A: Its GI50 is 3.19 µM (inactive).

Q: What about the GI50 (HT-29) of the same molecule?
A: Its GI50 is 14.7 µM (inactive).

Q: What about the GI50 (U-251) of the same molecule?
A: Its GI50 is 1.89 µM (inactive).

Q: What about the GI50 (CCRF-CEM) of the same molecule?
A: Its GI50 is 14.3 µM (inactive).

Q: What about the GI50 (NCI-H522) of the same molecule?
A: Its GI50 is 1.86 µM (inactive).

Q: For `CCCCn1c(C)c(C(=O)OCC)s/c1=N/Nc1nc2ccccc2nc1-c1ccccc1`, which GI50 (HCT-116) is on record?
A: Its GI50 is > 100 µM (inactive).

Q: What about the GI50 (SN12C) of the same molecule?
A: The GI50 was > 100 µM (inactive).

Q: And the GI50 (NCI-H23)?
A: The GI50 was 92.9 µM (inactive).

Q: And the GI50 (MDA-N)?
A: The GI50 was > 100 µM (inactive).

Q: And the GI50 (BT-549)?
A: The GI50 was > 100 µM (inactive).

Q: And the GI50 (SNB-19)?
A: The GI50 was 40.6 µM (inactive).

Q: And the GI50 (SNB-75)?
A: The GI50 was > 100 µM (inactive).

Q: And the GI50 (NCI/ADR-RES)?
A: Its GI50 is > 100 µM (inactive).

Q: And the GI50 (A498)?
A: The GI50 was 58.5 µM (inactive).

Q: What about the GI50 (TK-10) of the same molecule?
A: The GI50 was > 100 µM (inactive).

Q: And the GI50 (IGROV-1)?
A: Its GI50 is 75.7 µM (inactive).

Q: What about the GI50 (LOX IMVI) of the same molecule?
A: The GI50 was > 100 µM (inactive).

Q: And the GI50 (HOP-62)?
A: The GI50 was 30.8 µM (inactive).

Q: What about the GI50 (A549) of the same molecule?
A: Its GI50 is 50.4 µM (inactive).

Q: What about the GI50 (SK-MEL-28) of the same molecule?
A: Its GI50 is > 100 µM (inactive).

Q: And the GI50 (OVCAR-8)?
A: Its GI50 is 56.2 µM (inactive).

Q: What about the GI50 (HT-29) of the same molecule?
A: The GI50 was > 100 µM (inactive).

Q: What about the GI50 (U-251) of the same molecule?
A: Its GI50 is 43.6 µM (inactive).

Q: And the GI50 (CCRF-CEM)?
A: The GI50 was > 100 µM (inactive).

Q: And the GI50 (NCI-H522)?
A: The GI50 was 41.2 µM (inactive).

Q: What does the source list for `COc1ccc([N+](=O)[O-])c2c(NCCCN(C)C)c(C)c(C)nc12`?
A: GI50 (HCT-116): 36.2 µM (inactive); GI50 (SN12C): > 100 µM (inactive); GI50 (NCI-H23): 44.8 µM (inactive); GI50 (MDA-N): > 100 µM (inactive); GI50 (BT-549): 56.6 µM (inactive); GI50 (SNB-19): 44.8 µM (inactive); GI50 (SNB-75): 36.1 µM (inactive); GI50 (NCI/ADR-RES): > 100 µM (inactive); GI50 (A498): > 100 µM (inactive); GI50 (TK-10): > 100 µM (inactive); GI50 (IGROV-1): 36.6 µM (inactive); GI50 (LOX IMVI): > 100 µM (inactive); GI50 (HOP-62): 89.5 µM (inactive); GI50 (A549): 99.3 µM (inactive); GI50 (SK-MEL-28): > 100 µM (inactive); GI50 (OVCAR-8): > 100 µM (inactive); GI50 (HT-29): 42.6 µM (inactive); GI50 (U-251): > 100 µM (inactive); GI50 (CCRF-CEM): > 100 µM (inactive); GI50 (NCI-H522): 27.9 µM (inactive)

Q: Which results are given for `O=C(Nc1sccc1S(=O)(=O)c1ccc(Cl)cc1)c1ccc(F)cc1F`?
A: GI50 (HCT-116): 45.8 µM (inactive); GI50 (SN12C): 56.8 µM (inactive); GI50 (NCI-H23): 21 µM (inactive); GI50 (MDA-N): > 100 µM (inactive); GI50 (BT-549): 20.8 µM (inactive); GI50 (SNB-19): 21.9 µM (inactive); GI50 (SNB-75): 19.3 µM (inactive); GI50 (NCI/ADR-RES): 32.3 µM (inactive); GI50 (A498): 24.2 µM (inactive); GI50 (TK-10): 20.9 µM (inactive); GI50 (IGROV-1): 30.6 µM (inactive); GI50 (LOX IMVI): > 100 µM (inactive); GI50 (HOP-62): 24.9 µM (inactive); GI50 (A549): 48.2 µM (inactive); GI50 (SK-MEL-28): > 100 µM (inactive); GI50 (OVCAR-8): 30.9 µM (inactive); GI50 (HT-29): > 100 µM (inactive); GI50 (U-251): 19.2 µM (inactive); GI50 (CCRF-CEM): 19.2 µM (inactive); GI50 (NCI-H522): 20.3 µM (inactive)

Q: Which results are given for `N#CC1(C#N)C2(c3ccccc3)OC(c3ccccc3)(c3cc4ccccc4cc32)C1(C#N)C#N`?
A: GI50 (HCT-116): 7.03 µM (inactive); GI50 (SN12C): 16.6 µM (inactive); GI50 (NCI-H23): 11.9 µM (inactive); GI50 (MDA-N): 16.9 µM (inactive); GI50 (BT-549): > 10 µM (inactive); GI50 (SNB-19): 15.5 µM (inactive); GI50 (SNB-75): 13 µM (inactive); GI50 (NCI/ADR-RES): 21 µM (inactive); GI50 (A498): 19.5 µM (inactive); GI50 (TK-10): 16.2 µM (inactive); GI50 (IGROV-1): 14.8 µM (inactive); GI50 (LOX IMVI): 4.91 µM (inactive); GI50 (HOP-62): 20.7 µM (inactive); GI50 (A549): 14.7 µM (inactive); GI50 (SK-MEL-28): 12.4 µM (inactive); GI50 (OVCAR-8): 8.3 µM (inactive); GI50 (HT-29): 14.8 µM (inactive); GI50 (U-251): 16.3 µM (inactive); GI50 (CCRF-CEM): 1.08 µM (active); GI50 (NCI-H522): 3.01 µM (inactive)

Q: With `COc1cc2c(cc1OC)C(Cl)C(c1ccc(Br)cc1)=C2Cl` (stereo not given) as the molecule, how does the GI50 (HCT-116) read?
A: The GI50 was 9.16 µM (inactive).

Q: What about the GI50 (SN12C) of the same molecule?
A: The GI50 was 10.6 µM (inactive).

Q: And the GI50 (NCI-H23)?
A: Its GI50 is 9.95 µM (inactive).

Q: And the GI50 (MDA-N)?
A: The GI50 was 3.23 µM (inactive).

Q: What about the GI50 (BT-549) of the same molecule?
A: The GI50 was 2.31 µM (inactive).

Q: What about the GI50 (SNB-19) of the same molecule?
A: The GI50 was 16.7 µM (inactive).

Q: What about the GI50 (SNB-75) of the same molecule?
A: The GI50 was 13.3 µM (inactive).

Q: What about the GI50 (NCI/ADR-RES) of the same molecule?
A: The GI50 was 10.9 µM (inactive).

Q: And the GI50 (A498)?
A: Its GI50 is 15.2 µM (inactive).

Q: And the GI50 (TK-10)?
A: The GI50 was 11.4 µM (inactive).

Q: What about the GI50 (IGROV-1) of the same molecule?
A: The GI50 was 11.9 µM (inactive).

Q: And the GI50 (LOX IMVI)?
A: The GI50 was 9.48 µM (inactive).

Q: And the GI50 (HOP-62)?
A: The GI50 was 17.9 µM (inactive).

Q: What about the GI50 (A549) of the same molecule?
A: Its GI50 is 14.1 µM (inactive).

Q: What about the GI50 (SK-MEL-28) of the same molecule?
A: The GI50 was 14.8 µM (inactive).

Q: What about the GI50 (OVCAR-8) of the same molecule?
A: The GI50 was 10.1 µM (inactive).

Q: And the GI50 (HT-29)?
A: Its GI50 is 13.3 µM (inactive).

Q: And the GI50 (U-251)?
A: The GI50 was 10.2 µM (inactive).

Q: What about the GI50 (CCRF-CEM) of the same molecule?
A: The GI50 was 10.7 µM (inactive).

Q: And the GI50 (NCI-H522)?
A: The GI50 was 4.42 µM (inactive).
